In patent publication US20250353835A1, “N-TETRAZOLYL ARYL UREA-BASED DERIVATIVES, PREPARATION METHOD THEREFOR, AND USE THEREOF” (Hangzhou Yirui Pharmaceutical Technology Co., Ltd, priority 2022, published 2025):

Biological target: T1, human B1R (Homo sapiens, UniProt P46663)
T1 construct: host or cells: HEK293
T1 sequence (P46663 1-353): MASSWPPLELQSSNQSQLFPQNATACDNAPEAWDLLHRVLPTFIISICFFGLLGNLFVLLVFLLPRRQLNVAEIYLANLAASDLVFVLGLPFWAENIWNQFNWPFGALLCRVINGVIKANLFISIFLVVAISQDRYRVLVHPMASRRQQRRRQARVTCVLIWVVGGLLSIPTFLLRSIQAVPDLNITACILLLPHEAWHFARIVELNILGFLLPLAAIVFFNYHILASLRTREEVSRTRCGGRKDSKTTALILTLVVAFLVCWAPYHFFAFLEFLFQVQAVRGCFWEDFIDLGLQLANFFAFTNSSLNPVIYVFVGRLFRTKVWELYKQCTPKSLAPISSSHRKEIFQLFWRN
Test: FLIPR calcium ion flux assay, inhibitory activity against human B1R
Assay type: cell-based
Conditions: HEK293 cells stably expressing human B1R; agonist [Lys-des-Arg9]-Bradykinin 4.6 nM (EC80); FLIPR method
Procedure: The inhibitory activity of the compounds against human B1R and B2R channels was determined by calcium ion flux assay using fluorometric imaging plate reader (FLIPR method). See literatures of Lee, Chen et al. for the method. [Lee et al. 2008][Chen et al. 2011]
1. Cell culture: HEK293 recombinant cell lines (WuXi AppTec, Shanghai, China) stably expressing human B1R and B2R were cultured in DMEM (Invitrogen, Cat #11965) medium containing 10% calf serum (Excellbio, Cat #FSP500), 5 μg/ml Geneticin (Invitrogen, Cat #10131) and Penicillin/Streptomycin (Invitrogen, Cat #15140). The incubator conditions were 37° C. and ambient humidity containing 5% CO2.
2. Preparation of the cell assay plate: B1R and B2R cells were seeded in a 384-well assay plate (Greiner, Cat #781090) at a density of 20,000 cells per well (20 μl/well), and cultured overnight at 37° C. in an incubator with 5% CO2. The next day, Fluo-4 Direct™ Loading Buffer (containing 5 mM Probenicid) containing 2× (8 μM) Fluo-4 Direct (Invitrogen, Cat #F10471) was added to each of the wells. The cells were cultured at 37° C. for 50 min, and then culture for at the room temperature 10 min.
3. Preparation of the compound assay plate: The compound was dissolved in 100% DMSO to make a 30 mM stock solution and stored at −20° C. On the day of use, the stock solution of the compound was thawed at the room temperature. Each of the compounds was serially diluted at 1:5 in DMSO culture medium with a starting concentration of 30 μM for 9 concentration points on a 384-well plate. Each of compounds was diluted in duplicate for testing. [Des-Arg10]-HOE140 was used as a positive control compound, and diluted in the same manner with a starting concentration of 3 μM.
4. FLIPR assay: The cell assay plate was placed in a FLIPR instrument ([…]). The compounds in the compound assay plate were added to the corresponding wells on the cell assay plate (10 μL/well) using an automatic program. The calcium ion fluorescence signal was recorded to determine whether the compound may have agonist activity. After 10 minutes, a B1R agonist [Lys-des-Arg9]-Bradykinin2 (10 μL/well) with a final concentration of 4.6 nM (EC80) was added to each of the wells to stimulate the generation of intracellular calcium ion flux signals. The Ca^++-dependent fluorescence signal was continuously monitored at a wavelength of 538 nm to analyze the inhibitory activity of the compound.
5. Data analysis: The data was collected and analyzed by a FLIPR program. The inhibitory (or agonist) activity of the compound at each concentration was evaluated by the fluorescence peak. The IC50 values of the compounds were calculated using EXCEL and PRISM programs.

| Compound | IC50 [nM] |
| --- | --- |
| COc1ccc(-c2ccc(NC(=O)N3CCC(C(C)(C)C)CC3)cc2-c2nn[nH]n2)cc1OC [Compound 1, 4-(tert-butyl)-N-(3′,4′-dimethoxy-2-(2H-tetrazol-5-yl)-[1,1′-biphenyl]-4-yl)piperidine-1-carboxamide] | 40 |
| COc1ccc(-c2ccc(NC(=O)N3CCC4(CCCO4)CC3)cc2-c2nn[nH]n2)cc1OC [Compound 3, N-(3′,4′-dimethoxy-2-(2H-tetrazol-5-yl)-[1,1′-biphenyl]-4-yl)-1-oxy-8-azaspiro[4.5]decane-1-carboxamide] | 1330 |
| COc1ccc(-c2ccc(NC(=O)N3CCC4CCOC4C3)cc2-c2nn[nH]n2)cc1OC (stereo not shown) [Compound 4, N-(3′,4′-dimethoxy-2-(2H-tetrazol-5-yl)-[1,1′-biphenyl]-4-yl)hexahydrofuro[2,3-c]pyridine-6(2H)-carboxamide] | 5320 |
| CCOc1ccc(-c2ccc(NC(=O)N3CCC(C)CC3)cc2-c2nn[nH]n2)cn1 [Compound 5, N-(4-(6-ethoxypyrid-3-yl)-3-(2H-tetrazol-5-yl)phenyl)-4-methylpiperidine-1-carboxamide] | 162 |
| CCOc1ccc(-c2ccc(NC(=O)N3CCC(C(C)(C)C)CC3)cc2-c2nn[nH]n2)cn1 [Compound 6, 4-(tert-butyl)-N-(4-(6-ethoxypyrid-3-yl)-3-(2H-tetrazol-5-yl)phenyl)piperidine-1-carboxamide] | 23.6 |
| CCOc1ccc(-c2ncc(NC(=O)N3CCC(C(C)(C)C)CC3)cc2-c2nn[nH]n2)cn1 [Compound 7, 4-(tert-butyl)-N-(6′-ethoxy-3-(2H-tetrazol-5-yl)-[2,3′-bipyridyl]-5-yl)piperidine-1-carboxamide] | 57.8 |
| CC(C)(C)C1CCN(C(=O)Nc2ccc(-c3cnn(C4CCC4)c3)c(-c3nn[nH]n3)c2)CC1 [Compound 9, 4-(tert-butyl)-N-(4-(1-cyclobutyl-1H-pyrazol-4-yl)-3-(2H-tetrazol-5-yl)phenyl) piperidine-1-carboxamide] | 45.9 |
| Cn1ncc2cc(-c3ccc(NC(=O)N4CCC(C(C)(C)C)CC4)cc3-c3nn[nH]n3)ccc21 [Compound 10, 4-(tert-butyl)-N-(4-(1-methyl-1H-indazol-5-yl)-3-(2H-tetrazol-5-yl)phenyl)piperidine-1-carboxamide] | 18.3 |
| COc1ccc(-c2ccc(NC(=O)N3CCC(C)(C)CC3)cc2-c2nn[nH]n2)cc1OC [Compound 12, N-(3′,4′-dimethoxy-2-(2H-tetrazol-5-yl)-[1,1′-biphenyl]-4-yl)-4,4-dimethylpiperidine-1-carboxamide] | 148 |
| COc1ccc(-c2ccc(NC(=O)N3CCC(C(C)(C)C)CC3)cc2-c2nn[nH]n2)cc1C [Compound 13, 4-(tert-butyl)-N-(4′-methoxy-3′-methyl-2-(2H-tetrazol-5-yl)-[1,1′-biphenyl]-4-yl)piperidine-1-carboxamide] | 26.2 |
| COc1ccc(-c2ccc(NC(=O)N3CCC(C(C)(C)C)CC3)cc2-c2nn[nH]n2)cc1Cl [Compound 14, 4-(tert-butyl)-N-(3′-chloro-4′-methoxy-2-(2H-tetrazol-5-yl)-[1,1′-biphenyl]-4-yl)piperidine-1-carboxamide] | 23.5 |
| CC(C)(C)C1CCN(C(=O)Nc2ccc(C(=O)OC3CCCCC3)c(-c3nn[nH]n3)c2)CC1 [Compound 15, cyclohexyl 4-(4-(tert-butyl)piperidine-1-formamido)-2-(2H-tetrazol-5-yl)benzoate] | 39.8 |
| CCOC(=O)c1ccc(NC(=O)N2CCC(C(C)(C)C)CC2)cc1-c1nn[nH]n1 [Compound 16, ethyl 4-(4-(tert-butyl)piperidine-1-formamido)-2-(2H-tetrazol-5-yl)benzoate] | 28.2 |
| CC(C)(C)C1CCN(C(=O)Nc2cc(F)c(C(=O)OC3CCCCC3)c(-c3nn[nH]n3)c2)CC1 [Compound 17, cyclohexyl 4-(4-(tert-butyl)piperidine-1-formamido)-2-fluoro-6-(2H-tetrazol-5-yl)benzoate] | 29.6 |
| CC(C)(C)C1CCN(C(=O)Nc2cc(F)c(-c3ccc(C(F)(F)F)nc3)c(-c3nn[nH]n3)c2)CC1 [Compound 18, 4-(tert-butyl)-N-(3-fluoro-5-(2H-tetrazol-5-yl)-4-(6-(trifluoromethyl)pyrid-3-yl)phenyl)piperidine-1-carboxamide] | 9.9 |
| COc1ccc(-c2ccc(NS(=O)(=O)N3CCC(C)CC3)cc2-c2nn[nH]n2)cc1OC [Compound 19, N-(3′,4′-dimethoxy-2-(2H-tetrazol-5-yl)-[1,1′-biphenyl]-4-yl)-4-methylpiperidine-1-sulfamide] | 1140 |
| COc1ccc(-c2c(F)cc(NC(=O)N3CCC(C)CC3)cc2-c2nn[nH]n2)cc1OC [Compound 20, N-(2-fluoro-3′,4′-dimethoxy-6-(2H-tetrazol-5-yl)-[1,1′-biphenyl]-4-yl)-4-methyl piperidine-1-carboxamide] | 32.3 |
| CC1CCN(C(=O)Nc2ccc(-c3ccc4c(cnn4C)c3)c(-c3nn[nH]n3)c2)CC1 [Compound 21, 4-methyl-N-(4-(1-methyl-1H-indazol-5-yl)-3-(2H-tetrazol-5-yl)phenyl)piperidine-1-carboxamide] | 21.1 |
| COc1ccc(-c2ccc(NC(=O)N3CCC(C)CC3)cc2-c2nn[nH]n2)cc1Cl [Compound 22, N-(3′-chloro-4′-methoxy-2-(2H-tetrazol-5-yl)-[1,1′-biphenyl]-4-yl)-4-methylpiperidine-1-carboxamide] | 30.2 |
| CC1CCN(C(=O)Nc2cc(F)c(C(=O)OC3CCCCC3)c(-c3nn[nH]n3)c2)CC1 [Compound 23, cyclohexyl 2-fluoro-4-(4-methylpiperidine-1-formamido)-6-(2H-tetrazol-5-yl)benzoate] | 44.6 |
| CCOC(=O)c1ccc(NC(=O)N2CCC(C)CC2)cc1-c1nn[nH]n1 [Compound 24, ethyl 4-(4-methylpiperidine-1-formamido)-2-(2H-tetrazol-5-yl)benzoate] | 35.7 |
| COc1ccc(-c2c(F)cc(NC(=O)N3CCC(C(F)(F)F)CC3)cc2-c2nn[nH]n2)cc1OC [Compound 26, N-(2-fluoro-3′,4′-dimethoxy-6-(2H-tetrazol-5-yl)-[1,1′-biphenyl]-4-yl)-4-(trifluoromethyl)piperidine-1-carboxamide] | 54.4 |
| Cn1ncc2cc(-c3ccc(NC(=O)N4CCC(C(F)(F)F)CC4)cc3-c3nn[nH]n3)ccc21 [Compound 27, N-(4-(1-methyl-1H-indazol-5-yl)-3-(2H-tetrazol-5-yl)phenyl)-4-(trifluoromethyl)piperidine-1-carboxamide] | 25.7 |
| COc1ccc(-c2ccc(NC(=O)N3CCC(C(F)(F)F)CC3)cc2-c2nn[nH]n2)cc1Cl [Compound 28, N-(3′-chloro-4′-methoxy-2-(2H-tetrazol-5-yl)-[1,1′-biphenyl]-4-yl)-4-(trifluoromethyl)piperidine-1-carboxamide] | 24.5 |
| O=C(OC1CCCCC1)c1c(F)cc(NC(=O)N2CCC(C(F)(F)F)CC2)cc1-c1nn[nH]n1 [Compound 29, cyclohexyl 2-fluoro-6-(2H-tetrazol-5-yl)-4-(4-(trifluoromethyl)piperidine-1-formamido)benzoate] | 34.6 |
| CCOC(=O)c1ccc(NC(=O)N2CCC(C(F)(F)F)CC2)cc1-c1nn[nH]n1 [Compound 30] | 35.4 |
| CCOc1ccc(-c2c(F)cc(NC(=O)N3CCC(C)CC3)cc2-c2nn[nH]n2)cn1 [Compound 31, N-(4-(6-ethoxypyrid-3-yl)-3-fluoro-5-(2H-tetrazol-5-yl)phenyl)-4-methylpiperidine-1-carboxamide] | 19.2 |
| Cn1ncc2cc(-c3c(F)cc(NC(=O)N4CCC(C(C)(C)C)CC4)cc3-c3nn[nH]n3)ccc21 [Compound 32, 4-(tert-butyl)-N-(3-fluoro-4-(1-methyl-1H-indazol-5-yl)-5-(2H-tetrazol-5-yl)phenyl)piperidine-1-carboxamide] | 14.2 |
